The values below come from patent US20250051321A1, “TRICYCLIC DERIVATIVE AND PREPARATION METHOD THEREFOR AND APPLICATION THEREOF” (SHANGHAI JEMINCARE PHARMACEUTICAL CO., LTD., priority 2021, published 2025).

Data set [1] has as its system plasma LPA 18:1 and LPA 18:2. Nature of the data set: Human plasma ex vivo assay (LPA 18:1 / 18:2 by LC-MS/MS). Format: biochemical. As to conditions: 37° C., 2 hours. Summed up:
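Human plasma incubated 2 h at 37° C with compound (8 points, 1:3 dilution, top 10 μM, 0.1% DMSO), then quenched with 0.1% FA containing LPA 17:0 internal standard.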

The nature of data set [2]: Pharmacokinetic test in mice. The format is in vivo, ICR mice. To be noted: male, ICR, mouse, plasma; for clearance: read-out: CL (mL/min/kg, IV); for bioavailability: PO - 5 mpk vs IV - 1 mpk. Here is the method: Dosage preparation: The dosing solution was prepared on the day of dosing. 2 mg of compound was weighed and dissolved in 5% DMSO+10% solutol+85% saline to prepare a solution for intravenous administration at a concentration of 0.2 mg/mL. 2 mg of compound was weighed and dissolved in 25% PEG 200+75% (0.5% MC) to obtain a solution for oral administration at a concentration of 1 mg/mL.
Six healthy male naïve ICR mice, weighing 25 to 30 g, were divided into two groups (intravenous and oral groups) with three in each group, and administered in a single dose. After 3 days of acclimatization, the mice were fasted overnight (10 to 12 hours) the night before the experiment, but had free access to water during the experiment, and the diet was resumed 4 hours after administration. After intravenous and oral administration, the timer was started. Blood was collected via the orbital venous plexus at the scheduled time points (IV&PO: 0.083, 0.25, 0.5, 1, 2, 4, 6, 8, and 24 hours). 40 μL of whole blood was collected at each point and added to a 1.5 mL EP tube containing sodium heparin. The collected whole blood was vibrated twice on a vortex mixer, mixed well, placed on wet ice, and centrifuged at 8000 rpm for 5 minutes at 4° C. within 1 hour. The supernatant plasma was stored in a −80° C. freezer until processing for analysis.

The target of a further data set is ATX (Homo sapiens (Human), UniProt Q13822). Put plainly: ATX enzyme inhibition assay (Amplex UltraRed/choline oxidase/HRP, 16:0 Lyso PC substrate). Format: biochemical. To be noted: assay buffer pH 8.5; read-out: IC50 (nM) pH 8.5. In outline: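 ATX (2× stock […]) preincubated with compound for 10 min at room temperature in assay buffer at pH 8.5 or 7.5. Reaction started with 16:0 Lyso PC, choline oxidase, HRP and Amplex UltraRed (2.5× working stock); fluorescence read kinetically (ex 550/em 590 nm) for 60 min.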

[3] abbreviates: LPA 18:1, read-out: Human plasma ex vivo assay IC50 (18:1 LPA).
Where [4] appears, read: LPA 18:2, read-out: Human plasma ex vivo assay IC50 (18:2 LPA).

Like-named read-outs stand apart in the source and are kept apart here.

The term IC50 denotes the midpoint of a concentration-inhibition curve. The term AUC denotes the area under the concentration-time curve, a measure of exposure. As a reminder, the half-life is the time in which the quantity being followed falls by half. What is called Cmax is the highest concentration seen after dosing. In general, Tmax refers to the time from dosing to the highest level. Regarding `CN(c1nc(-c2ccc(F)cc2)c(C#N)s1)c1c2c(nc3c(F)cc(N4CC5(CN(C(=O)C(C)(C)O)C5)C4)cc13)[C@](C)(O)CC2` (single isomer, unassigned) [Example E35-b], in data set [1] (setting [3]), the IC50 was found to be 457 nM. The concentration for half-maximal inhibition (IC50) in data set [1] (setting [4]) was found to be 407 nM. In data set [2] (1 mg/kg, IV - 1 mpk), the AUC was found to be 6770 ng·h/mL, the C0 stood at 2920 ng/mL, the half-life is 2.51 h and the clearance was found to be 2.51 mL/min/kg. Moreover, in data set [2] (5 mg/kg, PO - 5 mpk), the AUC worked out at 14700 ng·h/mL, the concentration peaked (Cmax) at 3140 ng/mL, the Tmax turned out to be 1.58 h and the half-life was 2.05 h. The bioavailability in data set [2] (5 mg/kg) came to 43.5%.
For the compound `Cc1cc(N2CC3(CN(C(=O)C(C)(C)O)C3)C2)cc2c(N(C)c3nc(-c4ccc(F)cc4)c(C#N)s3)c3c(nc12)CC3` [Example C26], the IC50 in data set [1] (setting [3]) was determined as 588 nM. Besides, in data set [1] (setting [4]), the IC50 was determined as 435 nM. Also, in data set [2] (5 mg/kg, PO - 5 mpk), the AUC was 124000 ng·h/mL, the Cmax is 8390 ng/mL, the time of peak concentration (Tmax) was determined as 4.08 h and the half-life was 5.13 h.
For the compound `Cc1cc(N2CC3(CN(C(=O)C(C)(C)O)C3)C2)cc2c(N(C)c3nc(-c4ccc(F)cc4)c(C#N)s3)c3c(nc12)CCO3` [Example C27], in data set [2] (5 mg/kg, PO - 5 mpk), the area under the curve (AUC) turned out to be 27600 ng·h/mL, the maximum concentration (Cmax) amounted to 2010 ng/mL, the time to peak (Tmax) amounted to 6.67 h and the half-life was 3.98 h.
For the compound `CN(c1nc(-c2ccc(F)cc2)c(C#N)s1)c1c2c(nc3c(F)cc(N4CC5(CN(C(=O)C(C)(C)O)C5)C4)cc13)CC2` [Example C28], in data set [1] (setting [3]), the half-inhibitory concentration (IC50) came out at 545 nM. Also, in data set [1] (setting [4]), the IC50 is 574 nM. Besides, in data set [2] (1 mg/kg, IV - 1 mpk), the AUC came out at 14100 ng·h/mL, the C0 worked out at 2110 ng/mL, the half-life was 3.63 h and the clearance was found to be 1.21 mL/min/kg. Besides, in data set [2] (5 mg/kg, PO - 5 mpk), the AUC stood at 125000 ng·h/mL, the Cmax came out at 10200 ng/mL, the time to peak (Tmax) amounted to 3 h and the half-life was 2.82 h. Moreover, the bioavailability in data set [2] (5 mg/kg) came out at 176%.
`Cc1cc(N2CC3(CN(C(=O)C(C)(C)O)C3)C2)nc2c(N(C)c3nc(-c4ccc(F)cc4)c(C#N)s3)c3c(nc12)CC3` [Example C29]: the IC50 in data set [1] (setting [3]) was determined as 251 nM. Also, in data set [1] (setting [4]), the IC50 amounted to 220 nM. In addition, in data set [2] (1 mg/kg, IV - 1 mpk), the AUC amounted to 12600 ng·h/mL, the C0 stood at 2600 ng/mL, the half-life was 2.73 h and the clearance was found to be 1.39 mL/min/kg. In addition, in data set [2] (5 mg/kg, PO - 5 mpk), the AUC is 36500 ng·h/mL, the peak level (Cmax) was 3640 ng/mL, the Tmax worked out at 0.67 h and the half-life was 1.89 h. Moreover, the bioavailability in data set [2] (5 mg/kg) was found to be 57.7%.
In the case of `Cc1cc(N2CC3(CN(C(=O)C(C)(C)O)C3)C2)cc2c(N(C)c3nc(-c4ccc(F)cc4)c(C#N)s3)c3c(nc12)COC3` [Example C31], in data set [2] (5 mg/kg, PO - 5 mpk), the AUC is 32300 ng·h/mL, the highest concentration (Cmax) is 3480 ng/mL, the Tmax was 0.42 h and the half-life was 3.77 h.
For `CN(c1nc(-c2ccc(F)cc2)c(C#N)s1)c1c2c(nc3c(F)cc(N4CC5(CN(C(=O)C(C)(C)O)C5)C4)cc13)CCC2` [Example C32], in data set [2] (5 mg/kg, PO - 5 mpk), the AUC is 21400 ng·h/mL, the peak concentration (Cmax) stood at 2660 ng/mL, the Tmax was determined as 0.5 h and the half-life was 2.56 h.
Regarding `CN(c1nc(-c2ccc(F)cc2)c(C#N)s1)c1c2c(nc3c(F)cc(N4CC5(CN(C(=O)C6CCOCC6)C5)C4)cc13)C(O)CC2` (stereo not drawn) [Example E14], the half-inhibitory concentration (IC50) in data set [1] (setting [3]) was determined as 281 nM; in data set [1] (setting [4]), 651 nM; at ATX, 17.3 nM.
With `CN(c1nc(-c2ccc(F)cc2)c(C#N)s1)c1c2c(nc3c(F)cc(N4CC5(CN(C(=O)C6(O)CCOCC6)C5)C4)cc13)C(O)CC2` (stereo not drawn) [Example E15], the IC50 in data set [1] (setting [3]) amounted to 266 nM; in data set [1] (setting [4]) it was 271 nM; at ATX, 13.3 nM.
On the same counts, the results for `CN(c1nc(-c2ccc(F)cc2)c(C#N)s1)c1c2c(nc3c(F)cc(N4CC5(CN(C(=O)C(C)(C)O)C5)C4)cc13)C(O)CC2` (stereo not drawn) [Example E16] are 410 nM, 436 nM and 16.8 nM.
`CN1CC[C@H](C(=O)N2CC3(C2)CN(c2cc(F)c4nc5c(c(N(C)c6nc(-c7ccc(F)cc7)c(C#N)s6)c4c2)CCC5O)C3)C1` (stereo partly drawn) [Example E18]: the concentration for half-maximal inhibition (IC50) in data set [1] (setting [3]) worked out at 250 nM; in data set [1] (setting [4]), 260 nM; on ATX it was 21.4 nM.
